Measurements reported in US20040171566A1, “Antisense modulation of p38 mitogen activated protein kinase expression” (priority 1999, published 2004).
e = 2'-O-(2-methoxyethyl) (MOE); d = 2'-deoxy (DNA)

Legend:
rat p38α mRNA = experiment: Rat p38α mRNA levels in NR-8383 cells, quantitative real-time PCR; assay type: cell-based; conditions: 300 nM oligonucleotide with FuGENE 6, 24 hours, mRNA by quantitative real-time PCR, average of two experiments
Text: (§1) Quantitation of p38α mRNA levels was accomplished by real-time quantitative PCR using the ABI PRISM™ 7600, 7700, or 7900 Sequence Detection System (PE-Applied Biosystems, Foster City, Calif.) according to manufacturer's instructions. This is a closed-tube, non-gel-based, fluorescence detection system which allows high-throughput quantitation of polymerase chain reaction (PCR) products in real-time. As opposed to standard PCR in which amplification products are quantitated after the PCR is completed, products in real-time quantitative PCR are quantitated as they accumulate. This is accomplished by including in the PCR reaction an oligonucleotide probe that anneals specifically between the forward and reverse PCR primers, and contains two fluorescent dyes. A reporter dye (e.g., FAM or JOE, obtained from either PE-Applied Biosystems, Foster City, Calif., Operon Technologies Inc., Alameda, Calif. or Integrated DNA Technologies Inc., Coralville, Iowa) is attached to the 5′ end of the probe and a quencher dye (e.g., TAMRA, obtained from either PE-Applied Biosystems, Foster City, Calif., Operon Technologies Inc., Alameda, Calif. or Integrated DNA Technologies Inc., Coralville, Iowa) is attached to the 3′ end of the probe. When the probe and dyes are intact, reporter dye emission is quenched by the proximity of the 3′ quencher dye. During amplification, annealing of the probe to the target sequence creates a substrate that can be cleaved by the 5′-exonuclease activity of Taq polymerase. […] With each cycle, additional reporter dye molecules are cleaved from their respective probes, and the fluorescence intensity is monitored at regular intervals by laser optics built into the ABI PRISM™ Sequence Detection System. In each assay, a series of parallel reactions containing serial dilutions of mRNA from untreated control samples generates a standard curve that is used to quantitate the percent inhibition after antisense oligonucleotide treatment of test samples.
(§2) Prior to quantitative PCR analysis, primer-probe sets specific to the target gene being measured are evaluated for their ability to be “multiplexed” with a GAPDH amplification reaction. In multiplexing, both the target gene and the internal standard gene GAPDH are amplified concurrently in a single sample. In this analysis, mRNA isolated from untreated cells is serially diluted. Each dilution is amplified in the presence of primer-probe sets specific for GAPDH only, target gene only (“single-plexing”), or both (multiplexing). Following PCR amplification, standard curves of GAPDH and target mRNA signal as a function of dilution are generated from both the single-plexed and multiplexed samples. If both the slope and correlation coefficient of the GAPDH and target signals generated from the multiplexed samples fall within 10% of their corresponding values generated from the single-plexed samples, the primer-probe set specific for that target is deemed multiplexable. Other methods of PCR are also known in the art.
(§3) PCR reagents were obtained from Invitrogen Corporation, (Carlsbad, Calif.). […] The RT reaction was carried out by incubation for 30 minutes at 48° C. Following a 10 minute incubation at 95° C. to activate the PLATINUM® Taq, 40 cycles of a two-step PCR protocol were carried out: 95° C. for 15 seconds (denaturation) followed by 60° C. for 1.5 minutes (annealing/extension).
(§4) Gene target quantities obtained by real time RT-PCR are normalized using either the expression level of GAPDH, a gene whose expression is constant, or by quantifying total RNA using RiboGreen™ (Molecular Probes, Inc. Eugene, Oreg.). GAPDH expression is quantified by real time RT-PCR, by being run simultaneously with the target, multiplexing, or separately. Total RNA is quantified using RiboGreen™ RNA quantification reagent (Molecular Probes, Inc. Eugene, Oreg.). Methods of RNA quantification by RiboGreen™ are taught in Jones, L. J., et al, (Analytical Biochemistry, 1998, 265, 368-374). […]

mouse p38α mRNA = experiment: Mouse p38α mRNA levels in bEND.3 cells, quantitative real-time PCR; assay type: cell-based; parameters: % Inhib. mouse p38α: concentration or dose not given beside the values; conditions: bEND.3 cells, mRNA by quantitative real-time PCR, average of two experiments
Text: as §1, §2, §3, §4

Substance | % Inhib. rat p38α (rat p38α mRNA) [%] | % Inhib. mouse p38α (mouse p38α mRNA) [%]
320171 (antisense TGGAAAACTGTTTTGTCAAA; sugars from the 5' end e5 d10 e5, all phosphorothioate, methylation of C not given here) [compound 320171] | 2 | 35
320125 (antisense GCTGCTGTGATCCTCTTATC; sugars from the 5' end e5 d10 e5, all phosphorothioate, methylation of C not given here) [compound 320125] | 63 | 67
320113 (antisense ATCAATATGGTCTGTACCAG; sugars from the 5' end e5 d10 e5, all phosphorothioate, methylation of C not given here) [compound 320113] | 9 | 35
320117 (antisense GGAGATTTTCTTCAGAAGCT; sugars from the 5' end e5 d10 e5, all phosphorothioate, methylation of C not given here) [compound 320117] | 55 | 72
320157 (antisense CGTCCAACACTGGAATTGGC; sugars from the 5' end e5 d10 e5, all phosphorothioate, methylation of C not given here) [compound 320157] | 71 | 96
320158 (antisense CCTTCTGGGCTCCAAATGAT; sugars from the 5' end e5 d10 e5, all phosphorothioate, methylation of C not given here) [compound 320158] | 71 | 91
320152 (antisense TTTGCCCTTTCTCCCCATCA; sugars from the 5' end e5 d10 e5, all phosphorothioate, methylation of C not given here) [compound 320152] | 66 | 93
320137 (antisense CACACACATCCCTAAGGAGA; sugars from the 5' end e5 d10 e5, all phosphorothioate, methylation of C not given here) [compound 320137] | 44 | 80
320103 (antisense AGCTCCTGCCGGTAGAACGT; sugars from the 5' end e5 d10 e5, all phosphorothioate, methylation of C not given here) [compound 320103] | 55 | 81
320162 (antisense CGCATTATCTGCTGAAGCTG; sugars from the 5' end e5 d10 e5, all phosphorothioate, methylation of C not given here) [compound 320162] | 62 | 92
320116 (antisense TCAGAAGCTCAGCCCCTGGG; sugars from the 5' end e5 d10 e5, all phosphorothioate, methylation of C not given here) [compound 320116] | 73 | 95
320127 (antisense TGAGCAAAGTAGGCATGCGC; sugars from the 5' end e5 d10 e5, all phosphorothioate, methylation of C not given here) [compound 320127] | 56 | 73
320134 (antisense AACAAGAGGCACTTGAATGG; sugars from the 5' end e5 d10 e5, all phosphorothioate, methylation of C not given here) [compound 320134] | 74 | 85
320105 (antisense CCCGTCTTTGTATCAAAAGC; sugars from the 5' end e5 d10 e5, all phosphorothioate, methylation of C not given here) [compound 320105] | 59 | 89
320169 (antisense TTTGTTCTCACCTCATGGCT; sugars from the 5' end e5 d10 e5, all phosphorothioate, methylation of C not given here) [compound 320169] | 64 | 92
320115 (antisense GGGTTCCAACGAGTCTTAAA; sugars from the 5' end e5 d10 e5, all phosphorothioate, methylation of C not given here) [compound 320115] | 53 | 67
320126 (antisense AGGCATGCGCAAGAGCTTGG; sugars from the 5' end e5 d10 e5, all phosphorothioate, methylation of C not given here) [compound 320126] | 69 | 90
320147 (antisense AGAGCACAGCATGCAAACAC; sugars from the 5' end e5 d10 e5, all phosphorothioate, methylation of C not given here) [compound 320147] | 43 | 66
320156 (antisense GGAATTGGCTTTACACTTTC; sugars from the 5' end e5 d10 e5, all phosphorothioate, methylation of C not given here) [compound 320156] | 64 | 91
306022 (antisense GGCCAGAGACTGAATGTAGT; sugars from the 5' end e5 d10 e5, all phosphorothioate, methylation of C not given here) [compound 306022] | 53 | 78
320150 (antisense GGATTCCTACAACATACAAA; sugars from the 5' end e5 d10 e5, all phosphorothioate, methylation of C not given here) [compound 320150] | 62 | 82
320109 (antisense GCCCCCATGAGATGGGTCAC; sugars from the 5' end e5 d10 e5, all phosphorothioate, methylation of C not given here) [compound 320109] | 34 | 69
320123 (antisense CAATAAATACATTTGCGAAG; sugars from the 5' end e5 d10 e5, all phosphorothioate, methylation of C not given here) [compound 320123] | 32 | 79
320151 (antisense GAAGGAACCACACTCTCTAA; sugars from the 5' end e5 d10 e5, all phosphorothioate, methylation of C not given here) [compound 320151] | 47 | 90
320139 (antisense GCAGCCTCTCTCTGTCACTG; sugars from the 5' end e5 d10 e5, all phosphorothioate, methylation of C not given here) [compound 320139] | 61 | 87
320160 (antisense GTTAATATGGTCTGTACCAG; sugars from the 5' end e5 d10 e5, all phosphorothioate, methylation of C not given here) [compound 320160] | 43 | 53
